Laboratory results published in patent US20060069132A1, “Azolecarboxamide herbicides” (priority 2004, published 2006).

What was measured:
velvetleaf [1] = test: Test B pre-/postemergence herbicide test; assay type: in vivo, Abutilon theophrasti; conditions: for Plant response rating, Velvetleaf: preemergence; for Velvetleaf plant response rating: postemergence, visual rating, scale 0 (no effect) to 100 (complete control)
Method in brief: (§1)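 Visual rating, 0 (no effect) to 100 (complete control), versus untreated controls after 13–15 d in greenhouse. Pre- and postemergence applications (postemergence plants 2–18 cm, 1–4 leaves); flooded paddy arm at 2-leaf stage. Compounds in non-phytotoxic solvent plus surfactant.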

pigweed = test: Test B pre-/postemergence herbicide test; assay type: in vivo, Amaranthus retroflexus; conditions: for Plant response rating, Pigweed: preemergence; for Pigweed plant response rating: postemergence, visual rating, scale 0 (no effect) to 100 (complete control)
Method in brief: as §1

barnyardgrass [2] = test: Test B pre-/postemergence herbicide test; assay type: in vivo, Echinochloa crus-galli; conditions: for Plant response rating, Barnyardgrass: preemergence; for Barnyardgrass plant response rating: postemergence, visual rating, scale 0 (no effect) to 100 (complete control)
Method in brief: (§2)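 Response was scored visually 13 to 15 days after treatment against untreated greenhouse controls, 0 meaning no effect and 100 complete control. Formulations (solvent mixture plus surfactant) went onto soil after planting, onto foliage of 1- to 4-leaf plants, and onto 2-leaf plants in a flooded paddy set including rice and barnyardgrass.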

lambsquarters = test: Test B pre-/postemergence herbicide test; assay type: in vivo, Chenopodium album; conditions: for Plant response rating, Lambsquarters: preemergence; for Lambsquarters plant response rating: postemergence, visual rating, scale 0 (no effect) to 100 (complete control)
Method in brief: as §1

corn = test: Test B pre-/postemergence herbicide test; assay type: in vivo, Zea mays; conditions: for Plant response rating, Corn: preemergence; for Corn plant response rating: postemergence, visual rating, scale 0 (no effect) to 100 (complete control)
Method in brief: as §1

barnyardgrass [3] = test: Test B flooded paddy test; assay type: in vivo, Echinochloa crus-galli; conditions: 1000 g ai/ha, visual rating, scale 0 to 100 (0 no effect, 100 complete control), 13 to 15 days
Method in brief: (§3)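 Visual control ratings, 0–100 versus untreated controls, taken after 13 to 15 days in the greenhouse. Blackgrass received a postemergence spray at the 1- to 4-leaf stage (2–18 cm); ducksalad, umbrella sedge and barnyardgrass were flooded-paddy treated at 2 leaves.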

rice = test: Test B flooded paddy test; assay type: in vivo, Oryza sativa; conditions: 1000 g ai/ha, visual rating, scale 0 to 100 (0 no effect, 100 complete control), 13 to 15 days
Method in brief: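 Read-out: visual comparison with controls, scored 0 to 100, where 100 means complete control and 0 no effect. Formulated chemicals were applied postemergence to plants 2–18 cm tall (1- to 4-leaf), or to flooded-paddy plants at the 2-leaf stage, then held 13 to 15 days under glass.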

ducksalad = test: Test B flooded paddy test; assay type: in vivo, Heteranthera limosa; conditions: 1000 g ai/ha, visual rating, scale 0 to 100 (0 no effect, 100 complete control), 13 to 15 days
Method in brief: as §3

[4] = test system: small flower umbrella sedge; test: Test B flooded paddy test; assay type: in vivo, Cyperus difformis; conditions: 1000 g ai/ha, visual rating, scale 0 to 100 (0 no effect, 100 complete control), 13 to 15 days
Method in brief: as §3

blackgrass = test: Test B postemergence herbicide test; assay type: in vivo, Alopecurus myosuroides; conditions: postemergence, visual rating, scale 0 (no effect) to 100 (complete control)
Method in brief: as §3

wild oat = test: Test B postemergence herbicide test; assay type: in vivo, Avena fatua; conditions: postemergence, visual rating, scale 0 (no effect) to 100 (complete control)
Method in brief: (§4)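 Treated at 2-leaf (paddy) or 1–4-leaf, 2–18 cm (postemergence); greenhouse 13–15 d; visual score vs control, 0 none to 100 complete control; dash = not tested.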

giant foxtail [5] = test: Test B pre-/postemergence herbicide test; assay type: in vivo, Setaria faberi; conditions: for Plant response rating, Foxtail, Giant: preemergence; for Foxtail, Giant plant response rating: postemergence, visual rating, scale 0 (no effect) to 100 (complete control)
Method in brief: as §1

large crabgrass [6] = test: Test B pre-/postemergence herbicide test; assay type: in vivo, Digitaria sanguinalis; conditions: for Plant response rating, Crabgrass, Large: preemergence; for Crabgrass, Large plant response rating: postemergence, visual rating, scale 0 (no effect) to 100 (complete control)
Method in brief: as §1

barnyardgrass [7] = test: Test A pre-/postemergence herbicide test; assay type: in vivo, Echinochloa crus-galli
Method in brief: (§5)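 Visual injury scores on a 0–100 scale (100 = complete control) taken about ten days post-treatment in greenhouse against untreated controls; dash means no result. Treatments: preemergence soil spray and postemergence spray to runoff on one- to two-leaf plants 2 to 10 cm tall, surfactant-containing formulation.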

large crabgrass [8] = test: Test A pre-/postemergence herbicide test; assay type: in vivo, Digitaria sanguinalis
Method in brief: as §5

cocklebur = test: Test B pre-/postemergence herbicide test; assay type: in vivo, Xanthium strumarium; conditions: for Plant response rating, Cocklebur: preemergence; for Cocklebur plant response rating: postemergence, visual rating, scale 0 (no effect) to 100 (complete control)
Method in brief: as §2

wheat = test: Test B postemergence herbicide test; assay type: in vivo, Triticum aestivum; parameters: key to Wheat plant response rating: 0 = no effect, 100 = complete control; conditions: postemergence, 500 g ai/ha; visual rating, scale 0 (no effect) to 100 (complete control)
Method in brief: as §4

giant foxtail [9] = test: Test A pre-/postemergence herbicide test; assay type: in vivo, Setaria faberi
Method in brief: as §5

Surinam grass = test: Test B pre-/postemergence herbicide test; assay type: in vivo, Urochloa decumbens; conditions: for Plant response rating, Surinam Grass: preemergence; for Surinam Grass plant response rating: postemergence, visual rating, scale 0 (no effect) to 100 (complete control)
Method in brief: as §1

morningglory [10] = test: Test A pre-/postemergence herbicide test; assay type: in vivo, Ipomoea spp.
Method in brief: as §5

velvetleaf [11] = test: Test A pre-/postemergence herbicide test; assay type: in vivo, Abutilon theophrasti
Method in brief: as §5

morningglory [12] = test: Test B pre-/postemergence herbicide test; assay type: in vivo, Ipomoea coccinea; conditions: for Plant response rating, Morningglory: preemergence; for Morningglory plant response rating: postemergence, visual rating, scale 0 (no effect) to 100 (complete control)
Method in brief: as §2

redroot pigweed = test: Test A pre-/postemergence herbicide test; assay type: in vivo, Amaranthus retroflexus
Method in brief: as §5

[13] = 500 g ai/ha, visual rating 0-100, 0 no effect, 100 complete control
[14] = 125 g ai/ha, 0 to 100 scale, 0 is no effect, 100 is complete control
[15] = Postemergence, 500 g ai/ha, 0 to 100 scale, 0 no effect, 100 complete control
[16] = Postemergence, 2000 g ai/ha, 0 to 100 scale, 0 no effect, 100 complete control
[17] = Preemergence, 500 g ai/ha, visual rating, 0 to 100 scale (0 no effect, 100 complete control)
[18] = Preemergence, 2000 g ai/ha, visual rating, 0 to 100 scale (0 no effect, 100 complete control)
[19] = preemergence, 500 g ai/ha, visual injury, 0 to 100 scale (0 no effect, 100 complete control)

CC(=NO)c1ccnc(NC(=O)c2cc(C(C)(C)C)nn2C)n1 [Compound 164]
Plant response rating, Velvetleaf (velvetleaf [1]; [13]): 0
Velvetleaf plant response rating (velvetleaf [1]; 125 g ai/ha): 0
Velvetleaf plant response rating (velvetleaf [1]; 500 g ai/ha): 0
Plant response rating, Velvetleaf (velvetleaf [1]; [14]): 0
Plant response rating, Pigweed (pigweed; [13]): 0
Pigweed plant response rating (pigweed; 125 g ai/ha): 0
Pigweed plant response rating (pigweed; 500 g ai/ha): 0
Plant response rating, Pigweed (pigweed; [14]): 0
Plant response rating, Barnyardgrass (barnyardgrass [2]; [13]): 0
Barnyardgrass plant response rating (barnyardgrass [2]; 125 g ai/ha): 0
Barnyardgrass plant response rating (barnyardgrass [2]; 500 g ai/ha): 0
Plant response rating, Barnyardgrass (barnyardgrass [2]; [14]): 0
Plant response rating, Lambsquarters (lambsquarters; [13]): 0
Lambsquarters plant response rating (lambsquarters; 125 g ai/ha): 0
Lambsquarters plant response rating (lambsquarters; 500 g ai/ha): 10
Plant response rating, Lambsquarters (lambsquarters; [14]): 0
Plant response rating, Corn (corn; [13]): 0
Corn plant response rating (corn; 125 g ai/ha): 0
Corn plant response rating (corn; 500 g ai/ha): 10
Plant response rating, Corn (corn; [14]): 0
Barnyardgrass plant response rating (barnyardgrass [3]): 0
Rice plant response rating (rice): 0
Ducksalad plant response rating (ducksalad): 0
Sedge, Umbrella plant response rating [4]: 0
Blackgrass plant response rating (blackgrass; 125 g ai/ha): 0
Blackgrass plant response rating (blackgrass; 500 g ai/ha): 0
Oat, Wild plant response rating (wild oat; 125 g ai/ha): 0
Oat, Wild plant response rating (wild oat; 500 g ai/ha): 0
Plant response rating, Foxtail, Giant (giant foxtail [5]; [13]): 0
Foxtail, Giant plant response rating (giant foxtail [5]; 125 g ai/ha): 0
Foxtail, Giant plant response rating (giant foxtail [5]; 500 g ai/ha): 0
Plant response rating, Foxtail, Giant (giant foxtail [5]; [14]): 0
Plant response rating, Crabgrass, Large (large crabgrass [6]; [13]): 0
Crabgrass, Large plant response rating (large crabgrass [6]; 125 g ai/ha): 0
Crabgrass, Large plant response rating (large crabgrass [6]; 500 g ai/ha): 0
Plant response rating, Crabgrass, Large (large crabgrass [6]; [14]): 0
Barnyardgrass plant response rating (barnyardgrass [7]; [15]): 10
Plant response rating, Barnyardgrass (barnyardgrass [7]; [16]): 10
Barnyardgrass plant response rating (barnyardgrass [7]; [17]): 0
Barnyardgrass plant response rating (barnyardgrass [7]; [18]): 0
Crabgrass, Large plant response rating (large crabgrass [8]; [15]): 10
Plant response rating, Crabgrass, Large (large crabgrass [8]; [16]): 10
Crabgrass, Large plant response rating (large crabgrass [8]; [17]): 0
Crabgrass, Large plant response rating (large crabgrass [8]; [18]): 0
Plant response rating, Cocklebur (cocklebur; [13]): 0
Cocklebur plant response rating (cocklebur; 125 g ai/ha): 0
Cocklebur plant response rating (cocklebur; 500 g ai/ha): 0
Plant response rating, Cocklebur (cocklebur; [14]): 0
Wheat plant response rating (wheat): 0
Foxtail, Giant plant response rating (giant foxtail [9]; [15]): 0
Plant response rating, Foxtail, Giant (giant foxtail [9]; [16]): 0
Foxtail, Giant plant response rating (giant foxtail [9]; [17]): 0
Foxtail, Giant plant response rating (giant foxtail [9]; [18]): 0
Plant response rating, Surinam Grass (Surinam grass; [13]): 0
Surinam Grass plant response rating (Surinam grass; 125 g ai/ha): 0
Surinam Grass plant response rating (Surinam grass; 500 g ai/ha): 10
Plant response rating, Surinam Grass (Surinam grass; [14]): 0
Morningglory plant response rating (morningglory [10]; [15]): 10
Plant response rating, Morningglory (morningglory [10]; [16]): 5
Morningglory plant response rating (morningglory [10]; [17]): 0
Morningglory plant response rating (morningglory [10]; [18]): 0
Velvetleaf plant response rating (velvetleaf [11]; [15]): 5
Plant response rating, Velvetleaf (velvetleaf [11]; [16]): 0
Velvetleaf plant response rating (velvetleaf [11]; [18]): 0
Velvetleaf plant response rating (velvetleaf [11]; [19]): 0
Plant response rating, Morningglory (morningglory [12]; [13]): 0
Morningglory plant response rating (morningglory [12]; 125 g ai/ha): 0
Morningglory plant response rating (morningglory [12]; 500 g ai/ha): 0
Plant response rating, Morningglory (morningglory [12]; [14]): 0
Pigweed plant response rating (redroot pigweed; [15]): 0
Plant response rating, Pigweed (redroot pigweed; [16]): 0
Pigweed plant response rating (redroot pigweed; [18]): 0
Pigweed plant response rating (redroot pigweed; [19]): 0
